# Experimental data reported in patent US8470844B2, “Imidazoacridinone derivative compounds and methods for their use” (Technion Research & Development Foundation Limited, priority 2008, dated 2013).
# Experiments:
# [1] = tested on: A549/K1.5 cells; assay: MTT cytotoxicity assay, ABCG2-overexpressing A549/K1.5 cells; format: cell-based, Human; settings: for resistance of A549/K1.5 cells (in words): versus parental A549 cells
# Description: Tissue culture: Human non-small cell lung cancer A549 cells and T-cell leukemia CCRF-CEM cells were grown under monolayer conditions or up to a maximal density of 10^6 cells/ml (for CCRF-CEM cells) in RPMI-1640 medium (GIBCO) supplemented with 10% fetal calf serum, 2 mM glutamine, 100 μg/ml penicillin and 100 μg/ml streptomycin (Biological Industries, Beth-Haemek, Israel) in a humid atmosphere of 5% CO2. Drug resistant A549/K1.5 cells with ABCG2 overexpression were maintained under a continuous drug selection with 1.5 μM C-1305. Bram, E. E., et al., (2007) Biochem Pharmacol 74(1), 41-53.
# Cytotoxicity and growth inhibition assays: The cytotoxic activity of the various IA antitumor agents was determined using the MTT assay. Poindessous, V., et al., (2003) Clin Cancer Res 9(7), 2817-2825.
# Exponentially growing cells were seeded at 5×10^3 cells/well in 24-well plates (2 ml medium/well). Following an overnight incubation, cells were exposed to different drug concentrations for 96 hours. Cellular viability was determined by adding the tetrazolium salt MTT for 4 h at 37° C., followed by solubilization of the intracellular precipitated formazan in 1 ml DMSO and absorbance was determined by a microplate reader (ASYS Hitech GmbH, Austria). Drug concentrations required to inhibit cell growth by 50% (IC50) compared with untreated controls were determined from the curves of survival versus drug concentrations using the SlideWrite software (Advanced Graphics Software, Inc., Encinitas, Calif.). Resistance folds (RF) were calculated by dividing the IC50 value of the resistant cells by that of the parental cell line. Values presented are means of at least three independent experiments, each performed in duplicates.
# Quantitative evaluation of ABCG2 interaction with various IA derivatives: The extent of ABCG2-mediated resistance was expressed using the Resistance Fold (RF) parameter representing the ratio between the IC50 values of the resistant cells and parental cells. Likewise, ABCG2-dependent differential accumulation of IAs in ABCG2-overexpressing A549/K1.5 cells was compared using the ratio of IA accumulation in the presence or absence of the potent ABCG2 inhibitor FTC. This was termed the FTC-dependent Accumulation Fold (AF) and was determined for each IA at a constant IA concentration of 10 μM.
# [2] = biological target: T1, ABCG2 (A549/K1.5 cells) (Homo sapiens, UniProt Q9UNQ0); assay: Flow cytometric IA accumulation in A549/K1.5 cells with or without fumitremorgin C; format: cell-based
# T1 construct: Drug resistant A549/K1.5 cells with ABCG2 overexpression were maintained under a continuous drug selection with 1.5 μM C-1305; endogenous in cells; host or cells: A549/K1.5 (C-1305-selected subline of human non-small cell lung cancer A549)
# T1 sequence (Q9UNQ0 1-655): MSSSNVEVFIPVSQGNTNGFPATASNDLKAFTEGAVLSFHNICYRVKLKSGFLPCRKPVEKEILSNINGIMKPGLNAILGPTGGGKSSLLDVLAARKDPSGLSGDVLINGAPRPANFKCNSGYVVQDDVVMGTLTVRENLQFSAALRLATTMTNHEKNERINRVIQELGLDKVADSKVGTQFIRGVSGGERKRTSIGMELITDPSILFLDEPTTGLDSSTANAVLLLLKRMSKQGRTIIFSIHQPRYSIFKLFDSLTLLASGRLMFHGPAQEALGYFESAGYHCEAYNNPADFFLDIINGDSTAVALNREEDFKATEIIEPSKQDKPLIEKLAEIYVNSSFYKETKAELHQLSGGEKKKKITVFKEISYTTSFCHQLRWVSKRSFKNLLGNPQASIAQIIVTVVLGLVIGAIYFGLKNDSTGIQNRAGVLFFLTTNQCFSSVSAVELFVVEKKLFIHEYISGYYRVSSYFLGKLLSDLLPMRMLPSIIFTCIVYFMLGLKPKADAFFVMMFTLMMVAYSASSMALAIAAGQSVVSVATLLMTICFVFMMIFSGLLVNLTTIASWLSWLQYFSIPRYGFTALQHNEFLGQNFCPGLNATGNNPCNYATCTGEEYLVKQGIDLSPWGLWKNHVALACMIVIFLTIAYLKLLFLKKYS
# Description: In this assay, one ml aliquots of A549/K1.5 or CCRF-CEM cell suspensions (1×10^6 cells/ml) in growth medium containing 20 mM Hepes at pH 7.3 were distributed into 1.5 ml polypropylene Eppendorf test tubes. […] Rabindran, S. […] Alternatively, in time-course experiments, IA derivatives at a constant concentration of 10 μM were added to a CCRF-CEM cell suspension incubated at 37° C., and 1 ml aliquots were removed at variable time points up to 1 hour. Following incubation, test tubes were transferred to ice and centrifuged at 4° C. Cells were then washed twice and re-suspended in ice-cold PBS containing 1% fetal calf serum and kept in the dark at 4° C. until analysis. […] Quantitative evaluation of ABCG2 interaction with various IA derivatives: The extent of ABCG2-mediated resistance was expressed using the Resistance Fold (RF) parameter representing the ratio between the IC50 values of the resistant cells and parental cells.
smiles,measurement,setting,value
CCN(CC)CCNc1ccc2ncn3c4ccc(O)cc4c(=O)c1c23 [C-1311],IC50,"[1]; ABCG2-overexpressing A549/K1.5 cells, 96 hours exposure, MTT",2.34 ± 0.05 µM
same,RF (resistance fold),[1]; IC50 of A549/K1.5 cells divided by IC50 of parental A549 cells,8.70
same,resistance of A549/K1.5 cells (in words),[1],prominent resistance
same,resistance of A549/K1.5 cells (in words),[1]; listed as Symadex,marked drug resistance
same,ABCG2-mediated extrusion / interaction with ABCG2 (in words),[2],extruded by ABCG2-overexpressing lung cancer A549/K1.5 cells
